Results: US20150141375A1 (priority 2009, published 2015)
Where “and” joins values, the source holds several entries; their conditions need not be identical. Identical values can stand only once. Entries after “also recorded” stand apart in the source; their conditions may differ.

Assays:
[1] = system: HSV-2, strain MS; assay: Mortality of BALB/c mice infected intranasally with HSV-2, strain MS; type: in vivo
Method: Animals: BALB/c, female mice, 3-4 weeks of age.
Treatments were administered to mice for 7 consecutive days beginning 72 hr post viral inoculation by oral gavage using a 0.2 ml volume. CMX001 was administered once daily and ACV was given twice daily at approximately 12 hr intervals.
Mortality rates analyzed by Fisher's exact test; Mean day of death (MDD) by Mann-Whitney U rank sum.

[2] = system: vaccinia virus; details: CMX001 200 mg initial dose plus other therapies (MMWR 2009); cited from earlier work
[3] = system: HCMV; assay: HCMV viral DNA accumulation in HFF cells, real time PCR, 7 days; type: cell-based
[4] = system: CMV; assay: First fifteen EIND patients: CMV; type: in vivo, human; details: six CMV patients, three evaluable
Text: Three were evaluable for viral load reductions and 3/3 responded. Two of the patients who could not be evaluated for reductions in CMV had undetectable levels throughout CMX001 therapy. One patient received only one dose of CMX001 with no virologic follow up.

[5] = system: JCV Mad-4; assay: JCV Mad-4 extracellular load in astrocyte cells; type: cell-based, JC virus; details: in the presence of CMX001
[6] = system: HSV-2, strain MS; details: previous work; cited from earlier work
[7] = system: Adenovirus; assay: Adenovirus IC50s for CMX001, serotypes/isolates; type: cell-based
[8] = system: HPV 11; assay: In vitro potency against dsDNA viruses: HPV 11; type: cell-based
[9] = system: HPV 18; assay: In vitro potency against dsDNA viruses: HPV 18; type: cell-based
[10] = system: BKV; assay: First fifteen EIND patients: BKV; type: in vivo, human; details: one of two BKV patients
[11] = 3-way crossover bioavailability / food effect study in healthy volunteers; type: in vivo, human
Method: An open-label, 3-way crossover study in healthy volunteers comparing the bioavailability of CMX001 tablet versus solution formulation and the effect of food on CMX001 pharmacokinetics was completed. 24 healthy volunteers received 40 mg tablets (fed), 40 mg tablets (fasted), and 40 mg as a solution (fasted). […] Exposure as indicated by AUC was unchanged.

[12] = system: JCV (Mad-4); assay: JCV (Mad-4) replication in COS-7 cells (qPCR, immunofluorescence); type: cell-based, JC virus
[13] = system: JCV; assay: Patients with JC viral infections treated with CMX001; type: in vivo, human
Method: A study has been conducted on patients with various JC viral infections and diseases associated with JC virus. After these patients are treated with CMX001, the patients have shown significant improvements.

[14] = system: Mad-4 JCV; assay: JCV (Mad-4) initial infection of SVG cells (in situ DNA hybridization, qPCR)
[15] = PK comparison, mouse; type: in vivo; details: in vivo, 2 mg/kg, calculated from doses of 2 and 10 mg/kg, analyte = label
Text: Table 4 illustrates the PK comparison of CMX001 with CMX021 and CMX064 for mouse, rabbit and human.

[16] = system: Adenovirus; assay: In vitro activity against Adenovirus (HFF; AdV 5); type: cell-based
[17] = system: BKV; assay: EIND patients previously treated with other antivirals: BKV; type: in vivo, human
Method: A further study has been conducted on patients with various viral infections and diseases associated with virus.
As shown in Table 5(b), all patients that have been previously treated with other antiviral agents for example cidofovir. […] After these patients are treated with CMX001, the patients show significant improvements.

Q: Which MDD ([1]; CMX001 0.125 mg/kg) does the source give for `CCCCCCCCCCCCCCCCOCCCOP(=O)(O)CO[C@H](CO)Cn1ccc(N)nc1=O` [CMX001, Hexadecyloxypropyl-cidofovir] here?
A: 9.0 ± 1.0

Q: And the “Mortality Number” value ([1]; CMX001 0.125 mg/kg)?
A: 13/15

Q: What about the “Mortality Percent” value ([1]; CMX001 0.125 mg/kg) of the same molecule?
A: 87%

Q: And the MDD ([1]; CMX001 0.42 mg/kg)?
A: 9.8 ± 2.6

Q: What about the “Mortality Number” value ([1]; CMX001 0.42 mg/kg) of the same molecule?
A: 12/15

Q: What about the “Mortality Percent” value ([1]; CMX001 0.42 mg/kg) of the same molecule?
A: 80%

Q: What about the MDD ([1]; CMX001 1.25 mg/kg) of the same molecule?
A: 9.4 ± 2.9

Q: And the “Mortality Number” value ([1]; CMX001 1.25 mg/kg)?
A: 9/15

Q: What about the “Mortality Percent” value ([1]; CMX001 1.25 mg/kg) of the same molecule?
A: 60%

Q: And the “time until virus cultures at the vaccination site became negative for vaccinia virus” value [2]?
A: ≤ 5 days

Q: What about the “concentration reducing the quantity of viral DNA by 10-fold” value [3] of the same molecule?
A: less than 1 nanomolar

Q: What about the “reduction of accumulation of viral DNA” value [3] of the same molecule?
A: at least three orders of magnitude

Q: What about the “fold reduction of viral DNA” value ([3]; CMX001 10 nanomolar) of the same molecule?
A: 1000 fold

Q: And the “amplification of viral DNA” value ([3]; CMX001 above 10 nM)?
A: essentially eliminated the amplification of viral DNA

Q: And the “evaluable patients responding (viral load reductions)” value [4]?
A: 3/3

Q: And the “change in extracellular JCV load over 7 days” value [5]?
A: less than 1 log

Q: What about the “optimal dose of CMX001 in this model” value [6] of the same molecule?
A: 5 mg/kg

Q: And the IC50 ([7]; Ad14 (three isolates))?
A: 41 nM and 36 nM

Q: What about the IC50 ([7]; unidentified adenovirus, Ad3) of the same molecule?
A: 48 nM

Q: And the IC50 ([7]; unidentified adenovirus, Ad3 ATCC)?
A: 34 nM

Q: And the IC50 ([7]; unidentified adenovirus, Ad4)?
A: 32 nM

Q: And the IC50 ([7]; unidentified adenovirus, Ad4 ATCC)?
A: 20 nM

Q: And the IC50 ([7]; unidentified adenovirus, Ad5 ATCC)?
A: 46 nM

Q: And the IC50 ([7]; unidentified adenovirus, Ad7)?
A: 34 nM

Q: And the IC50 ([7]; unidentified adenovirus, Ad7 ATCC)?
A: 65 nM

Q: And the IC50 ([7]; unidentified adenovirus, Ad14 (three isolates))?
A: 34 nM

Q: What about the IC50 ([7]; unidentified adenovirus, Ad14 ATCC) of the same molecule?
A: 22 nM

Q: And the IC50 ([7]; unidentified adenovirus, Ad21)?
A: 44 nM

Q: What about the EC50 ([8]; A-431, A431) of the same molecule?
A: 17 µM

Q: And the “Enhanced Activity” value ([8]; CMX001 versus cidofovir EC50)?
A: 42

Q: What about the “Enhanced Activity” value ([9]; CMX001 versus cidofovir EC50) of the same molecule?
A: 1229

Q: And the EC50 ([9]; HeLa)?
A: 420 nM

Q: What about the response [10] of the same molecule?
A: > 1.5 log 10

Q: And the adverse events ([11]; 40 mg)?
A: no serious adverse events

Q: And the “exposure as indicated by AUC” value ([11]; 40 mg)?
A: unchanged

Q: And the “reduction of plasma Cmax by a high fat meal” value ([11]; 40 mg tablets)?
A: approximately 40%

Q: And the “delay of Tmax, tablet versus liquid formulation” value ([11]; 40 mg, fasted)?
A: ~1 h

Q: What about the “reduction of extracellular JCV loads” value ([12]; 0.6 μM CMX001) of the same molecule?
A: approximately 90%

Q: What about the “JCV VP1 immunofluorescence” value ([12]; 1.25 μM CMX001, 7 d.p.i.) of the same molecule?
A: significant reduction of JCV VP1 signal

Q: What about the “change in the JCV load over 7 days” value ([12]; 5 μM CMX001) of the same molecule?
A: less than 1 log

Q: What about the “JCV VP1 immunofluorescence” value ([12]; 5 μM CMX001, 7 d.p.i.) of the same molecule?
A: essentially no VP1 positive cells could be observed

Q: And the “extracellular JCV load” value ([12]; 5 μM CMX001, 7 d.p.i. (day 1: 1.34×10^7; untreated: 5.67×10^10))?
A: 8.85×10^7 geq/ml

Q: What about the IC90 ([12]; JC polyomavirus, 120 h, COS-7, 5 d.p.i., viral input subtracted, read-out: IC-90, extracellular JCV load) of the same molecule?
A: 600 nM

Q: And the EC50 ([12]; JC polyomavirus, 120 h, COS-7, 5 days)?
A: 150 nM

Q: And the “JCV Viral Load, Urine” value ([13]; Sub 1, D7)?
A: D7: 557 copies/mL

Q: And the “JCV Viral Load, CSF” value ([13]; Sub 1, ~5 wks 2 mg/kg, D32 (Pre: 306))?
A: D32: <300 copies/mL

Q: And the “JCV Viral Load, CSF” value ([13]; Sub 3, 4 days (2 doses) 4 mg/kg, Post (Pre: 518))?
A: Post: <500 copies/mL

Q: And the “JCV Viral Load, Blood” value ([13]; Sub 4, EOT (Pre: 148))?
A: EOT: 261 copies/mL

Q: What about the “JCV Viral Load, CSF” value ([13]; Sub 4, ~2.5 wks 4 mg/kg, EOT (Pre: 16,474)) of the same molecule?
A: EOT: 1070 copies/mL

Q: And the “JCV Viral Load, Blood” value ([13]; Sub 5, ongoing ~3 wks 4 mg/kg, D7 (Pre: 1800))?
A: D7 500 copies/mL

Q: And the “Clinical Comment” value ([13]; individual patients Sub 1-5 during CMX001 treatment)?
A: During treatment, the patient regained swallowing; also recorded: became undetectable (<300 copies/mL) in the CSF

Q: What about the “reduction in percentage of JCV DNA containing cells” value (from here on “reduction in percentage”) ([14]; 0.03 μM, 4 days) of the same molecule?
A: 46%

Q: And the “decrease in number of JCV genome copies (qPCR)” value ([14]; 0.07 μM, 4 days)?
A: 57%

Q: And the “reduction in percentage” value ([14]; 0.07 μM, 4 days)?
A: 57%

Q: And the “maximal suppression of JCV DNA containing cells, normalized to total cell number” value ([14]; 0.1 μM)?
A: 52%

Q: What about the “reduction in percentage” value ([14]; 0.1 μM, 4 days) of the same molecule?
A: 71%

Q: And the EC50 ([14]; JC polyomavirus, read-out: EC50, JCV copy number)?
A: 45 nM

Q: What about the AUC ([15]; after CMX001) of the same molecule?
A: 83.1 ng·h/mL

Q: And the Cmax ([15]; after CMX001, read-out: Cmax)?
A: 7.9 ng/mL

Q: What about the “Enhanced Activity” value ([16]; CMX001 versus cidofovir EC50) of the same molecule?
A: 65

Q: What about the IC50 ([16]; unidentified adenovirus) of the same molecule?
A: 20 nM

Q: What about the EC50 ([16]; unidentified adenovirus, HFF) of the same molecule?
A: 20 nM

Q: What about the hemorrhagic cystitis ([17]; EIND 107275) of the same molecule?
A: improved while on CMX001

Q: What about the BK viruria ([17]; EIND 107640, declined from 120 million) of the same molecule?
A: 48 million copies/mL

Q: What about the BK viremia ([17]; EIND 107640, decreased from 1900) of the same molecule?
A: 1900 to 28 copies/mL; BK

Q: And the Hemorragic cystitis ([17]; EIND 108897)?
A: Hemorragic cystitis resolved

Q: And the BKV in urine ([17]; EIND 108897, at last dose (baseline 7.7 log10), 4 mg/kg twice weekly 2 weeks)?
A: log10 at baseline to 5.1 log10 at last

Q: And the “decrease of BKV in urine” value ([17]; EIND 109232, first two weeks, 2 mg/kg twice weekly)?
A: BKV in urine decreased 2.2 log10
